Laboratory results reported in patent US20060127914A1 (priority 1999, published 2006).

Legend:
α9/α10 combination = target: T1, α9/α10 combination (Homo sapiens, UniProt Q9GZZ6+Q9UGM1, N442S); experiment: Two electrode voltage clamp recording in Xenopus oocytes injected with α9 plus α10; assay type: cell-based
T1 construct: expressed in transfected cells; host or cells: Xenopus laevis oocytes injected with cRNA made from cDNAs in pSP64T.GL+
Procedure: (§1) 5 minutes washout time was allowed between each response. The data is corrected for run-up or run-down and expressed as a percentage of the maximum evoked current. Curves have been fitted using the non-linear curve fitting routine of Graph Pad. The fit is constrained to a lower bound of 0 while the upper bound is unconstrained. The correlation coefficients are R^2=0.9999 and 0.9980 for α9 and α9/α10, respectively.
(§2) Xenopus laevis females were purchased from Blades Biological, UK. The animals were maintained and dissected as described in Gould (1994) Membrane Protein and Expression Systems: a User's Guide Portland Press, London. Stage V or VI oocytes were de-folliculated by incubating with 0.2% collagenase (Sigma) in calcium-free Barth's solution on a vibrating platform set at 8 Hz for 2 hours at 18° C. Oocytes were then maintained in normal Barth's solution (containing 160 IU/ml penicillin and 74 IU/ml streptomycin). On the following day oocytes were injected with 1 to 25 ng cRNA using a Drummond Nanoject and left for at least three days before recording. cRNA was synthesised from cDNAs previously subcloned into the pSP64T.GL+ vector using the SP6 Message Machine Kit (Ambion).
(§3) Two electrode voltage clamp recording was carried out using a TURBO TEC-10CD (NPI Electronic GmbH, D-71732 Tamm, Germany). For current recording oocytes were placed in ND-96 Ringer (containing 96 mM NaCl, 1.8 mM CaCl2, 2 mM KCl, 1 mM MgCl2 and 5 mM HEPES (pH=7.4)) and impaled with two electrodes filled with 3 M KCl and 1 to 2 MΩ tip resistance. Recording were made in oocytes in which the membrane potential stabilised to potentials more negative than −20 mV during a 20 minute stabilisation period.
(§4) α10 nAChR function and pharmacology was investigated in Xenopus oocytes using two electrode voltage clamp techniques.

[1] = target: T2, α9 alone (homomeric α9 nAChR) (Homo sapiens, UniProt Q9UGM1, N442S); experiment: Two electrode voltage clamp recording in Xenopus oocytes injected with α9 alone; assay type: cell-based
T2 construct: expressed in transfected cells; host or cells: Xenopus laevis oocytes injected with cRNA made from cDNA in pSP64T.GL+
Procedure: as §1, §2, §3, §4

[2] = read-out: IC50 for inhibition of ACh-evoked response

T1 sequence (Q9GZZ6 25-450): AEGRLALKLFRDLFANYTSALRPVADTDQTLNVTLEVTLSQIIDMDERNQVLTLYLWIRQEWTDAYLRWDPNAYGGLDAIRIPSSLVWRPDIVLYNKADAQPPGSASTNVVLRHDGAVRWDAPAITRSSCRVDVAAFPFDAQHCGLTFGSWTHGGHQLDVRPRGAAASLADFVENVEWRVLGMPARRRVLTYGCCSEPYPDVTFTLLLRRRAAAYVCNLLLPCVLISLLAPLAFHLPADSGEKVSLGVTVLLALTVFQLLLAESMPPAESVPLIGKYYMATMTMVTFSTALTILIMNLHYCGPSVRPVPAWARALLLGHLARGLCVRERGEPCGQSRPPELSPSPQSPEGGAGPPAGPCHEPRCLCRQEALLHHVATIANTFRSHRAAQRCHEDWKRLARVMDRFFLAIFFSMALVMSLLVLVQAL
T1 sequence (Q9UGM1 23-479 N442S): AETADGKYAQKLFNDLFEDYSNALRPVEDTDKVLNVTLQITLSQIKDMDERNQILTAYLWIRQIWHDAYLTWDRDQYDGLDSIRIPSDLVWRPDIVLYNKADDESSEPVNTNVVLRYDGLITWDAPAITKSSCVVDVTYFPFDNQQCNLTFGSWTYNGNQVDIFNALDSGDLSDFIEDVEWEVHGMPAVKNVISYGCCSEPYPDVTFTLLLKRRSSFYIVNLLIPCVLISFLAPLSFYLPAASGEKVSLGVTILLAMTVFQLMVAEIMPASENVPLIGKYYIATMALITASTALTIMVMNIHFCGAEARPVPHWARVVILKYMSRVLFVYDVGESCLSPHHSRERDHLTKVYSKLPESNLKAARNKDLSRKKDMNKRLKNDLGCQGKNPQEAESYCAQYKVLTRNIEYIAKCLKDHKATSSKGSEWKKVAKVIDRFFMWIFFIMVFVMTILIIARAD
T2 sequence (Q9UGM1 23-479 N442S): as above

Compound | proportional increase in area-under-the curve for normalised responses (α9/α10 combination; 30 s ACh application compared to 10 s application, α9/α10, N=2) [%] | proportional increase in area-under-the curve for normalised responses ([1]; 30 s ACh application compared to 10 s application, α9 alone, N=2) [%] | Hill coefficient of inhibition curve (α9/α10 combination) | IC50 (α9/α10 combination; [2]) [nM] | Hill coefficient of inhibition curve [1] | IC50 [1, 2] [nM]
CC(=O)OCC[N+](C)(C)C [ACh, acetylcholine] | 44 | 82 | – | – | – | –
α-bungarotoxin [α-Btx] | – | – | −0.89 | 3.7 | −1.25 | 2.7
